Test results from patent US20220017512A1 (SHANGHAI ENNOVABIO PHARMACEUTICALS CO., LTD., priority 2018, published 2022).

How the values were obtained:
Format in all cases: biochemical
Recombinant human TRKA = biological target: T1, Recombinant human TRKA (Homo sapiens, UniProt P04629); assay: In vitro activity test on TRKA kinase (HTRF KinEASE TK); settings: 14.68 μM ATP, 40 min
T1 construct: purchased Carna Biosciences
Method in brief: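 Reaction: 0.2 ng/μL TRKA, 1 μM biotinylated TK substrate, 14.68 μM ATP, 5 mM MgCl2, 1 mM DTT, 1% DMSO, 40 min at room temperature. Compounds tested at 1 μM to 0.05 nM (10-point, 3-fold, duplicate). HTRF 665/620 ratio converted to % inhibition versus no-compound control; IC50 by 4-parameter fit.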

[1] = biological target: T2, recombinant human TRKA (G595R) (Homo sapiens, UniProt P04629, G595R); assay: In vitro activity test on mutant TRKA (G595R) (HTRF KinEASE TK); settings: 4.5 μM ATP, 30 min
T2 construct: purchased SignalChem
Method in brief: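 HTRF KinEASE TK format: 0.12 ng/μL recombinant TRKA (G595R), 1 μM biotinylated TK substrate, 4.5 μM ATP, 5 mM MgCl2, 1 mM DTT, 1% DMSO, 30 min at room temperature; detection overnight. IC50 from 10-point 4-fold series (1 μM to 0.004 nM, duplicates), 665/620 ratio, 4-parameter fit.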

Recombinant human TRKB = biological target: T3, Recombinant human TRKB (Homo sapiens, UniProt Q16620); assay: In vitro activity test on TRKB kinase (HTRF KinEASE TK); settings: 4.77 μM ATP, 50 min
T3 construct: purchased Carna Biosciences
Method in brief: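 Recombinant human TRKB (0.037 ng/μL) phosphorylated 1 μM biotinylated TK substrate at 4.77 μM ATP, 5 mM MgCl2, 1% DMSO, 50 min at room temperature; compounds 1 μM–0.05 nM. HTRF KinEASE detection overnight; 665/620 ratio converted to inhibition and IC50 from 4-parameter fit.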

[2] = biological target: T4, recombinant human TRKA (G667C) (Homo sapiens, UniProt P04629, G667C); assay: In vitro activity test on mutant TRKA (G667C) (HTRF KinEASE TK); settings: 5.5 μM ATP, 30 min
T4 construct: purchased SignalChem
Protocol: Biological Test Example 2 In Vitro Activity Test on Mutant TRKA (G595R), TRKA (G667C) and TRKC (G623R)
The recombinant human TRKA (G595R), TRKA (G667C) and TRKC (G623R) proteins were purchased from SignalChem. HTRF kinEASE TK kit was purchased from CisbioBioassays. Synergy Neo 2 of Biotek was used to read the plate.
The tested compound was subjected to 4-fold serial dilution to reach a final concentration of 1 μM to 0.004 nM (10 concentrates), duplicates for each concentration; and 1% DMSO was present in the detection reaction.
0.026 ng/μL TRKA (G667C) kinase, 1 μM TK Substrate-biotin polypeptide substrate, 5.5 μm ATP, 1× enzymatic buffer, 5 mM MgCl2, and 1 mM DTT. The detection plate was White Proxiplate 384-Plus plate (PerkinElmer), and incubated at room temperature for 30 min, the assay volume was 10 μL.
10 μL of detection reagent was added to the plate (containing 0.125 μM SA-XL665 and 5 μL 1×TK-Antibody) and incubated overnight at room temperature, and Synergy Neo 2 was used to read the plate.
The value of 665/620 Ratio minus the value of negative control wells without enzyme, then the obtained value was converted according to the following formula into inhibition rate (%)=(1−Ratiotest/Ratiomax)×100%. Ratiomax was a positive control without tested compound, and Ratiotest was the value of each concentration of different compounds. IC50 (nM) data was obtained by 4 parameter curve fitting (see Table 1).

Recombinant human TRKC = biological target: T5, Recombinant human TRKC (Homo sapiens, UniProt Q16288); assay: In vitro activity test on TRKC kinase (HTRF KinEASE TK); settings: 25.64 μM ATP, 40 min
T5 construct: purchased Carna Biosciences
Method in brief: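 Recombinant human TRKC (0.037 ng/μL) with 1 μM biotinylated TK substrate, 25.64 μM ATP, 5 mM MgCl2, 1 mM DTT, 40 min at room temperature; compound 1 μM to 0.05 nM, 1% DMSO. HTRF 665/620 ratio after overnight detection; IC50 from 4-parameter fit.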

T4 sequence (P04629 33-796 G667C): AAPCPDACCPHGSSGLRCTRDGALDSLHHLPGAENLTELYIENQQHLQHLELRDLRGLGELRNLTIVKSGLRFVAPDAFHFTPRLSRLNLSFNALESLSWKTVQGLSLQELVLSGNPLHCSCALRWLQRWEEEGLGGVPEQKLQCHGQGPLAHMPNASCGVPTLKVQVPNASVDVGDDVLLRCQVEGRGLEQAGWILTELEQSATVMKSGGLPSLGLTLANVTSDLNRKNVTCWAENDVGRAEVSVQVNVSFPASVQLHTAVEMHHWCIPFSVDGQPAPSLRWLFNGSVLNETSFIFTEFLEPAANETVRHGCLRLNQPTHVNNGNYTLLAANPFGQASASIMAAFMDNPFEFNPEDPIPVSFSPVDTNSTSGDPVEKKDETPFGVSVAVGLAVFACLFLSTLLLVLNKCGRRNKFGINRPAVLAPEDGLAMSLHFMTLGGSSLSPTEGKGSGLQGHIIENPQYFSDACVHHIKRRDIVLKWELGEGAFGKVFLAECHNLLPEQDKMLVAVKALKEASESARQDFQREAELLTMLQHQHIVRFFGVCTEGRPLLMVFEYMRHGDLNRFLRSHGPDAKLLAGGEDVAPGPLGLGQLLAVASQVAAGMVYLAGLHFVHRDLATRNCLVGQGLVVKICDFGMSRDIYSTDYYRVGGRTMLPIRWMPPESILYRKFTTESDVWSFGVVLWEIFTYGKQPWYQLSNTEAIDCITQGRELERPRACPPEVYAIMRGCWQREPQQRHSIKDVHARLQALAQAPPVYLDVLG
T1 sequence (P04629 33-796): as the sequence (P04629 33-796 G667C) above, with C635G counted along it
T3 sequence (Q16620 32-822): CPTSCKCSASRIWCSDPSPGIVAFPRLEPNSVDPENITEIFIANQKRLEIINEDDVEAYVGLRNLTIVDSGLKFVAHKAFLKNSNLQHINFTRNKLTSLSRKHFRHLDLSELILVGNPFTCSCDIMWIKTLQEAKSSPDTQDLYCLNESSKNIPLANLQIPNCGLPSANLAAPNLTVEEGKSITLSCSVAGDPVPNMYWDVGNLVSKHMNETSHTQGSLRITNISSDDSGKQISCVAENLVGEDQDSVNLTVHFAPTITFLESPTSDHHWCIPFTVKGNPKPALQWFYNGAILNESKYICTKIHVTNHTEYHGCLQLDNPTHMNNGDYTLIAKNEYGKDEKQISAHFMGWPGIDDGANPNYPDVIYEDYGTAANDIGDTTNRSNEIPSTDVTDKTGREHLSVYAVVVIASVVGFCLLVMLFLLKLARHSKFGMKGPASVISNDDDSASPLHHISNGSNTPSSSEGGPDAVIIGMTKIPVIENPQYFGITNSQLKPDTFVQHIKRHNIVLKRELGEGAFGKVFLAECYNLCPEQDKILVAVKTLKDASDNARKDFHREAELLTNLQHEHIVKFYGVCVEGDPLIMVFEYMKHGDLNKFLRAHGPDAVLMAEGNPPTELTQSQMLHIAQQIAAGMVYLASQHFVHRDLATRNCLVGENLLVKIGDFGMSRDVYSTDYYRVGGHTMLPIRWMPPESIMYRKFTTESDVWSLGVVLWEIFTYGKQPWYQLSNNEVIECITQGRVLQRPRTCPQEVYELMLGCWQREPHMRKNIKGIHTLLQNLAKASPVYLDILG
T2 sequence (P04629 33-796 G595R): as the sequence (P04629 33-796 G667C) above, with G563R, C635G counted along it
T5 sequence (Q16288 32-839): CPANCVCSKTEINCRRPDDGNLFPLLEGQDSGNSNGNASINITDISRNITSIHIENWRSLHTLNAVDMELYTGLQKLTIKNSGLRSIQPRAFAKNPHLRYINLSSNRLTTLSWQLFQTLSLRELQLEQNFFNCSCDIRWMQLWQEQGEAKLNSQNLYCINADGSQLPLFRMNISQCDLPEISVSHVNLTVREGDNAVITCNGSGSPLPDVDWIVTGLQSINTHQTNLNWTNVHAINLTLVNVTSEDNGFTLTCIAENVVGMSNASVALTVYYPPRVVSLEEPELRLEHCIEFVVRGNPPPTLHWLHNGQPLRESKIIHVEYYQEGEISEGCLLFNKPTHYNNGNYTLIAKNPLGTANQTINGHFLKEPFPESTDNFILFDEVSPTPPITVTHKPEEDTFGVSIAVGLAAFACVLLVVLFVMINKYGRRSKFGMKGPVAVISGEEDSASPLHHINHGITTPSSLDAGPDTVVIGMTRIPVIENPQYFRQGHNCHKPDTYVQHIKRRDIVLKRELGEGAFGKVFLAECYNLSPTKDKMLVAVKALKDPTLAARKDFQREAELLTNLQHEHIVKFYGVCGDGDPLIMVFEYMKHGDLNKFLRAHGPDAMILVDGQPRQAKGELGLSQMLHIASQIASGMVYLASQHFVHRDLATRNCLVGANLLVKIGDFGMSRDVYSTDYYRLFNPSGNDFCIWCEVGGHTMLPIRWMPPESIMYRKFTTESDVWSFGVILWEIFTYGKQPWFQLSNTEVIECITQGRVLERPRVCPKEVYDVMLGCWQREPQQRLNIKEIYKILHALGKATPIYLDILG

Compound | IC50 (Recombinant human TRKA) [nM] | IC50 [1] [nM] | IC50 (Recombinant human TRKB) [nM] | IC50 [2] [nM] | IC50 (Recombinant human TRKC) [nM]
Fc1ccc(F)c([C@H]2C[C@H](F)CN2c2ccc3ncc(F)c(-c4cnn(C5CNC5)c4)c3n2)c1 [Example 29, 8-(1-(azetidin-3-yl)-1H-pyrazol-4-yl)-2-((2R,4S)-2-(2,5-difluorophenyl)-4-fluoropyrrolidin-1-yl)-7-fluoro-1,5-naphthyridine] | < 1 | < 1 | < 1 | < 1 | < 1
Fc1ccc(F)c([C@H]2C[C@H](F)CN2c2ccc3nccc(-c4cnn(C5CCOCC5)c4)c3n2)c1 [Example 12, 2-((2R,4S)-2-(2,5-difluorophenyl)-4-fluoropyrrolidin-1-yl)-8-(1-(tetrahydro-2H-pyran-4-yl)-1H-pyrazol-4-yl)-1,5-naphthyridine] | < 1 | < 1 | < 1 | < 1 | < 1
Fc1ccc(F)c([C@H]2CCCN2c2ccc3ncc(Cl)c(-c4cnn(C5CCNCC5)c4)c3n2)c1 [Example 24, (R)-7-chloro-2-(2-(2,5-difluorophenyl)pyrrolidin-1-yl)-8-(1-(piperidin-4-yl)-1H-pyrazol-4-yl)-1,5-naphthyridine] | < 1 | < 1 | < 1 | < 10 | < 10
O[C@H]1CCN(c2ccc(-c3ncnc4ccc(N5C[C@@H](F)C[C@@H]5c5cc(F)ccc5F)nc34)cn2)C1 [Example 75, (S)-1-(5-(6-((2R,4S)-2-(2,5-difluorophenyl)-4-fluoropyrrolidin-1-yl)pyrido[3,2-d]pyrimidin-4-yl)pyridin-2-yl)pyrrolidin-3-ol] | < 1 | < 1 | < 1 | < 10 | < 1
COC1(C)CC(n2cc(-c3c(Cl)cnc4ccc(N5C[C@@H](F)C[C@@H]5c5cc(F)ccc5F)nc34)cn2)C1 (stereo partly drawn) [Example 38, 7-chloro-2-((2R,4S)-2-(2,5-difluorophenyl)-4-fluoropyrrolidin-1-yl)-8-(1-(3-methoxy-3-methylcyclobutyl)-1H-pyrazol-4-yl)-1,5-naphthyridine] | < 1 | < 50 | < 10 | < 50 | < 10
Fc1ccc(F)c([C@H]2C[C@H](F)CN2c2ccc3ncnc(-n4cc(C5CCNCC5)cn4)c3n2)c1 [Example 78, 6-((2R,4S)-2-(2,5-difluorophenyl)-4-fluoropyrrolidin-1-yl)-4-(4-(piperidin-4-yl)-1H-pyrazol-1-yl)pyrido[3,2-d]pyrimidine] | < 1 | < 1 | < 1 | < 10 | < 1
COc1ccc(F)cc1[C@H]1CCCN1c1ccc2ncc(Cl)c(-c3cnn(C4CCNCC4)c3)c2n1 [Example 33, (R)-7-chloro-2-(2-(5-fluoro-2-methoxyphenyl)pyrrolidin-1-yl)-8-(1-(piperidin-4-yl)-1H-pyrazol-4-yl)-1,5-naphthyridine] | < 1 | < 10 | < 10 | < 10 | < 50
Fc1ccc(F)c([C@H]2C[C@H](F)CN2c2ccc3ncc(Cl)c(-c4ccn(C5CCNCC5)c4)c3n2)c1 [Example 48, 7-chloro-2-((2R,4S)-2-(2,5-difluorophenyl)-4-fluoropyrrolidin-1-yl)-8-(1-(piperidin-4-yl)-1H-pyrrol-3-yl)-1,5-naphthyridine] | < 1 | < 10 | < 1 | < 10 | < 1
CN1CCC(n2cc(-c3c(Cl)cnc4ccc(N5C[C@@H](F)C[C@@H]5c5cc(F)ccc5F)nc34)cn2)CC1 [Example 43, 7-Chloro-2-((2R,4S)-2-(2,5-difluorophenyl)-4-fluoropyrrolidin-1-yl)-8-(1-(1-methylpiperidine-4-yl)-1H-pyrazol-4-yl)-1,5-naphthyridine] | < 1 | < 10 | < 1 | < 1 | < 1
OC[C@H](O)CN1CCC(n2cc(-c3c(Cl)cnc4ccc(N5C[C@@H](F)C[C@@H]5c5cc(F)ccc5F)nc34)cn2)CC1 [Example 40, (R)-3-(4-(4-(3-chloro-6-((2R,4S)-2-(2,5-difluorophenyl)-4-fluoropyrrolidin-1-yl)-1,5-naphthyridin-4-yl)-1H-pyrazol-1-yl)piperidin-1-yl)propane-1,2-diol] | < 1 | < 1 | < 1 | < 1 | < 1
NC(=O)c1cnc2ccc(N3C[C@@H](F)C[C@@H]3c3cc(F)ccc3F)nc2c1-c1cnn(C2CCNCC2)c1 [Example 37, 6-((2R,4S)-2-(2,5-difluorophenyl)-4-fluoropyrrolidin-1-yl)-4-(1-(piperidin-4-yl)-1H-pyrazol-4-yl)-1,5-naphthyridin-3-carboxamide] | < 1 | < 10 | < 10 | < 50 | < 10
Fc1ccc(F)c([C@H]2CCCN2c2ccc3nccc(-c4cnn(C5CCNCC5)c4F)c3n2)c1 [Example 15, (R)-2-(2-(2,5-Difluorophenyl)pyrrolidin-1-yl)-8-(5-fluoro-1-(piperidin-4-yl)-1H-pyrazole-4-yl)-1,5-naphthyridine] | < 1 | < 1 | < 1 | < 10 | < 1
Fc1ccc(F)c([C@H]2C[C@H](F)CN2c2ccc3ncc(Cl)c(-c4cnc(C5CCNCC5)s4)c3n2)c1 [Example 50, 5-(3-Chloro-6-((2R,4S)-2-(2,5-difluorophenyl)-4-fluoropyrrolidin-1-yl)-1,5-naphthyridin-4-yl)-2-(piperidin-4-yl)thiazole] | < 1 | < 10 | < 10 | < 10 | < 10
O=S1(=O)CCC(n2cc(-c3c(Cl)cnc4ccc(N5C[C@@H](F)C[C@@H]5c5cc(F)ccc5F)nc34)cn2)CC1 [Example 47, 4-(4-(3-chloro-6-((2R,4S)-2-(2,5-difluorophenyl)-4-fluoropyrrolidin-1-yl)-1,5-naphthyridin-4-yl)-1H-pyrazol-1-yl)tetrahydro-2H-thiopyran 1,1-dioxide] | < 1 | < 10 | < 1 | < 1 | < 1
Fc1ccc(F)c([C@H]2CCCN2c2ccc3ncc(F)c(-c4cnn(C5CNC5)c4)c3n2)c1 [Example 28, (R)-8-(1-(azetidin-3-yl)-1H-pyrazol-4-yl)-2-(2-(2,5-difluorophenyl)pyrrolidin-1-yl)-7-fluoro-1,5-naphthyridine] | < 10 | < 10 | < 10 | < 10 | < 10
O[C@H]1CCN(c2ncnc3ccc(N4C[C@@H](F)C[C@@H]4c4cc(F)ccc4F)nc23)C1 [Example 71, (S)-1-(6-((2R,4S)-2-(2,5-difluorophenyl)-4-fluoropyrrolidin-1-yl)pyrido[3,2-d]pyrimidine-4-yl)pyrrolidin-3-ol] | < 1 | < 1 | < 1 | < 10 | < 1
NC(=O)c1ccnc2ccc(N3CCC[C@@H]3c3cc(F)ccc3F)nc12 [Example 10, (R)-6-(2-(2,5-difluorophenyl)pyrrolidin-1-yl)-1,5-naphthyridin-4-carboxamide] | < 1 | < 1 | < 1 | < 100 | < 1
